pIC50: −log10 of the molar value. Active and inactive are the calls of the source. The calls are words filed in the database; no cut-off is given here. Positions of bridges follow the written chain, without caps; N, C: chain ends. Residues, ends and D or L forms follow the SMILES beside them. *: point of attachment. Cbz = O=C(OCc1ccccc1)*
Tests used:
PC-3 [1] = experiment: Antiproliferative activity against human PC3 cells at 100 nM after 120 hrs by MTT assay relative to DMSO; format: functional
PC-3 [2] = experiment: Antiproliferative activity against human PC3 cells at 1.5 uM after 120 hrs by MTT assay relative to DMSO; format: functional
PC-3 [3] = experiment: Antiproliferative activity against human PC3 cells at 250 nM after 120 hrs by MTT assay relative to DMSO; format: functional
PC-3 [4] = experiment: Antiproliferative activity against human PC3 cells at 10 ng/ml after 120 hrs by MTT assay relative to DMSO; format: functional
PC-3 [5] = experiment: Antiproliferative activity against human PC3 cells at 2.5 uM after 120 hrs by MTT assay relative to DMSO; format: functional
HEK293 [6] = experiment: Inhibition of proteasome expressed in HEK293 cells assessed as effect on Pin1-Jun interaction complexes by EYFP and/or YFP Venus fragment based reporter gene assay
HEK293 [7] = experiment: Inhibition of proteasome expressed in HEK293 cells assessed as effect on p53-p53 interaction complexes by EYFP and/or YFP Venus fragment based reporter gene assay
Cofilin-1 (Homo sapiens) [8] = molecular target: Cofilin-1 (Homo sapiens) (UniProt P23528); experiment: Effect on cofilin1 expressed in HEK293 cells assessed as effect on cofilin1; Limk2 interaction complexes by EYFP and/or YFP Venus fragment based reporter gene assay; format: cell-based
HEK293 [9] = experiment: Inhibition of proteasome expressed in HEK293 cells assessed as effect on E6:E6AP interaction complexes by EYFP and/or YFP Venus fragment based reporter gene assay
HEK293 [10] = experiment: Inhibition of proteasome expressed in HEK293 cells assessed as effect on p53-Chk1 interaction complexes by EYFP and/or YFP Venus fragment based reporter gene assay
HEK293 [11] = experiment: Inhibition of proteasome expressed in HEK293 cells assessed as effect on CyclinD1-CDK4 interaction complexes by EYFP and/or YFP Venus fragment based reporter gene assay
PC-3 [12] = experiment: Antiproliferative activity against human PC3 cells at 1 uM after 120 hrs by MTT assay relative to DMSO; format: functional
MIA PaCa-2 = experiment: Antiproliferative activity against human MIAPaCa2cells after 120 hrs by MTT assay; format: functional, cell-based; conditions: MIA PaCa-2, 120 h
LoVo = experiment: Antiproliferative activity against human LoVo cells after 120 hrs by MTT assay; format: functional, cell-based
[13] = Antiproliferative activity against human U87MG cells after 120 hrs by MTT assay; format: functional, cell-based, U-87MG ATCC; conditions: U-87 MG
PC-3 [14] = experiment: Antiproliferative activity against human PC3 cells after 120 hrs by MTT assay; format: functional, cell-based; conditions: PC-3, 120 h
A549 = experiment: Antiproliferative activity against human A549 cells after 120 hrs by MTT assay; format: functional, cell-based; conditions: A549, 120 h
PC-3 [15] = experiment: Antiproliferative activity against human PC3 cells at 15 uM after 120 hrs by MTT assay relative to DMSO; format: functional
PC-3 [16] = experiment: Antiproliferative activity against human PC3 cells at 3 uM after 120 hrs by MTT assay relative to DMSO; format: functional
PC-3 [17] = experiment: Antiproliferative activity against human PC3 cells at 300 nM after 120 hrs by MTT assay relative to DMSO; format: functional
[18] = molecular target: Cyclin-dependent kinase 1 (Homo sapiens) (UniProt P06493); experiment: Effect on Cdc2 expressed in HEK293 cells assessed as effect on Cdc2:Cdc25A interaction complexes in presence of camptothecin by EYFP and/or YFP Venus fragment based reporter gene assay; format: cell-based
Cofilin-1 (Homo sapiens) [19] = molecular target: Cofilin-1 (Homo sapiens) (UniProt P23528); experiment: Effect on cofilin1 expressed in HEK293 cells assessed as effect on cofilin1; Limk2 interaction complexes in presence of camptothecin by EYFP and/or YFP Venus fragment based reporter gene assay; format: cell-based
[20] = molecular target: Cyclin-dependent kinase 1 (Homo sapiens) (UniProt P06493); experiment: Effect on Cdc2 expressed in HEK293 cells assessed as effect on Cdc2:Cdc25C interaction complexes in presence of camptothecin by EYFP and/or YFP Venus fragment based reporter gene assay; format: cell-based
[21] = molecular target: Transcription factor Jun (Homo sapiens) (UniProt P05412); experiment: Inhibition of c-Jun expressed in HEK293 cells assessed as induction of protein interaction in presence of camptothecin with Pin1 by EYFP based reporter gene assay; format: cell-based
HEK293 [22] = experiment: Inhibition of HSP90 expressed in HEK293 cells assessed as effect on Akt1:p27 interaction complexes by EYFP and/or YFP Venus fragment based reporter gene assay; format: cell-based

Cofilin-1 (Homo sapiens), sequence (P23528 whole entry, the tested form may be a part): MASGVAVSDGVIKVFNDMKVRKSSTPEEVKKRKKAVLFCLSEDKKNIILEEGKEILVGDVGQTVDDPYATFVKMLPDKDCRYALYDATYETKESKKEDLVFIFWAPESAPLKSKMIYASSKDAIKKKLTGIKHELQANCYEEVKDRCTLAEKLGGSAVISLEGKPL
Cyclin-dependent kinase 1 (Homo sapiens), sequence (P06493 whole entry, looked up, the tested form may be a part): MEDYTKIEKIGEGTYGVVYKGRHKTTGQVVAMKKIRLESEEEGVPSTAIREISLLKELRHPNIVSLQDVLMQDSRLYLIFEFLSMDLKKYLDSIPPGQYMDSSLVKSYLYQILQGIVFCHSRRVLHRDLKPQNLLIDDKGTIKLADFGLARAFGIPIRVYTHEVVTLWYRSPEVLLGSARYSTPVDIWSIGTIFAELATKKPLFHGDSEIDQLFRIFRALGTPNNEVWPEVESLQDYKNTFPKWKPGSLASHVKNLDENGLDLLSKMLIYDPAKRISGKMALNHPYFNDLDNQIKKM
Transcription factor Jun (Homo sapiens), sequence (P05412 whole entry, the tested form may be a part): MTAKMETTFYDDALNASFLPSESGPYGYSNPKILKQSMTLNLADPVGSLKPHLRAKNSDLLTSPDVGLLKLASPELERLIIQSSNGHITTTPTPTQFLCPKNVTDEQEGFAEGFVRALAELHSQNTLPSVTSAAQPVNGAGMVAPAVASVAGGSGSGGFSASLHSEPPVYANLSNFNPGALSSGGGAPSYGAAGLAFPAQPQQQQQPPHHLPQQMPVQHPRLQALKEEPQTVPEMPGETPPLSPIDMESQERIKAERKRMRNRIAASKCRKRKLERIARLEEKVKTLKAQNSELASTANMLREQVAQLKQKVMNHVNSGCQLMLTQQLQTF

CC[C@H](C)[C@H](NC(=O)[C@@H](NC(=O)[C@H](CC(=O)O)NC(=O)[C@H](CCC(N)=O)NC(=O)[C@H](Cc1cnc[nH]1)NC(=O)[C@@H]1CSSC[C@H](N)C(=O)N[C@@H](CO)C(=O)N[C@H]2CSSC[C@H](NC(=O)[C@H](CCC(=O)O)NC(=O)[C@H](CCCCN)NC(=O)[C@H](CC(=O)O)NC(=O)[C@H]([C@@H](C)O)NC(=O)[C@H](CCSC)NC(=O)[C@H](CC(=O)O)NC(=O)[C@H](CCCCN)NC2=O)C(=O)N[C@@H](CC(C)C)C(=O)N[C@@H](Cc2ccc(O)cc2)C(=O)N[C@@H](Cc2ccccc2)C(=O)N1)C(C)C)C(=O)N[C@@H](Cc1c[nH]c2ccccc12)C(=O)O (H-CSCKDMTDKECLYFCHQDVIW-OH; disulfide 1-15, 3-11)
fold change (FC) (PC-3 [1]): 1.037

N#Cc1ccc(C(c2ccc(C#N)cc2)n2cncn2)cc1 [LETROZOLE]
fold change (FC) (PC-3 [2]): 1.001

CO[C@H]1C[C@@H]2CC[C@@H](C)[C@@](O)(O2)C(=O)C(=O)N2CCCC[C@H]2C(=O)O[C@H]([C@H](C)C[C@@H]2CC[C@@H](O)[C@H](OC)C2)CC(=O)[C@H](C)/C=C(\C)[C@@H](O)[C@@H](OC)C(=O)[C@H](C)C[C@H](C)/C=C/C=C/C=C/1C [SIROLIMUS]
fold change (FC) (PC-3 [3]): 0.401

CCC(=C/[C@H](C)C/C=C/C(C)=C/[C@@H](C)C(=O)[C@@H](C)[C@H](O)[C@@H](C)C/C(C)=C/C(=O)O)/C=C/[C@@H]1OC(=O)C=C[C@@H]1C [LEPTOMYCIN B]
fold change (FC) (PC-3 [4]): 0.262

CC(=O)O[C@H]1C(=O)[C@@]2(C)[C@H]([C@H](OC(=O)c3ccccc3)[C@]3(O)C[C@H](OC(=O)[C@H](O)[C@@H](NC(=O)c4ccccc4)c4ccccc4)C(C)=C1C3(C)C)[C@]1(OC(C)=O)CO[C@@H]1C[C@@H]2O [PACLITAXEL]
fold change (FC) (PC-3 [5]): 0.281

CC(C)C[C@@H](C=O)NC(=O)[C@H](CC(C)C)NC(=O)[C@H](CC(C)C)NC(=O)OCc1ccccc1 [MG-132] (Cbz-Leu-Leu-Leu-aldehyde)
inhibition (HEK293 [6]): Active
inhibition (HEK293 [7]): Active
Activity (Cofilin-1 (Homo sapiens) [8]): Active
inhibition (HEK293 [9]): Active
inhibition (HEK293 [10]): Active
inhibition (HEK293 [11]): Active
fold change (FC) (PC-3 [12]): 0.255

C=C1C[C@@H]2[C@H](CC[C@]3(C)C(=O)CC[C@@H]23)[C@@]2(C)C=CC(=O)C=C12 [EXEMESTANE]
fold change (FC) (PC-3 [2]): 0.975

C/C(=C\c1csc(C)n1)[C@@H]1C[C@@H]2O[C@@H]2CCC[C@H](C)[C@H](O)[C@@H](C)C(=O)C(C)(C)[C@@H](O)CC(=O)O1 [EPOTHILONE A]
fold change (FC) (PC-3 [1]): 0.291

Cn1c2ccccc2c2c3c(c4c5ccccc5n(CCC#N)c4c21)CNC3=O [GO-6976]
fold change (FC) (PC-3 [1]): 1.119

O=C(Nc1ccc([N+](=O)[O-])cc1Cl)c1cc(Cl)ccc1O [NICLOSAMIDE]
pIC50 (MIA PaCa-2): 5.96
pIC50 (LoVo): 6.15
pIC50 [13]: 6.40
pIC50 (PC-3 [14]): 6.40
fold change (FC) (PC-3 [12]): 0.408
pIC50 (A549): 6.40

CN(CCOc1ccc(CC2SC(=O)NC2=O)cc1)c1ccccn1 (stereo not given) [ROSIGLITAZONE]
fold change (FC) (PC-3 [15]): 0.925

CN(CCOc1ccc(C[C@H](Nc2ccccc2C(=O)c2ccccc2)C(=O)O)cc1)c1ccccn1
fold change (FC) (PC-3 [16]): 0.956

C=C(C)[C@H]1Cc2c(ccc3c2O[C@@H]2COc4cc(OC)c(OC)cc4[C@@H]2C3=O)O1 [ROTENONE]
fold change (FC) (PC-3 [17]): 0.548
Activity [18]: Active
Activity (Cofilin-1 (Homo sapiens) [19]): Active
Activity [20]: Active
Activity [21]: Active

COC1=C2C[C@@H](C)C[C@H](OC)[C@H](O)[C@@H](C)/C=C(\C)[C@H](OC(N)=O)[C@@H](OC)/C=C\C=C(/C)C(=O)NC(=CC1=O)C2=O [GELDANAMYCIN]
fold change (FC) (PC-3 [5]): 0.261
inhibition (HEK293 [22]): Active

Reference: ChEMBL document CHEMBL1221184, “Identifying off-target effects and hidden phenotypes of drugs in human cells” (Nat Chem Biol, 2006)
